This is an account of results in patent US7312245B2 (priority 2001, dated 2007).

Holding throughout (format): in vivo
Test [1] relates to Pyricularia oryzae. The note with it: spray application of wettable powder diluted to 500 ppm; rice Koshihikari 2-leaf stage; spray-inoculated with Pyricularia oryzae spores; examined after 7 days.
In test [2] the test system is Pyricularia oryzae. The note with it: granules applied to water surface at 3 kg/10 ares; rice Koshihikari; inoculated 30 days after application; lesions checked after 1 week.
For test [3], the system named is Pyricularia oryzae. The note with it: nursery box treated with granules 50 g per box; rice Koshihikari; inoculated 30 days after transplantation; lesions counted after 1 week.

Where two headings read alike, the source gives them in different places.

As to `Cc1ccc(C(=O)NCC(NC(=O)OCc2ccccc2)C(C)C)cc1` (stereo not drawn) [compound 600], the “Grade of Effect (preventive value, rice blast controlling effect)” value (“Grade of Effect” for short) in the test on Pyricularia oryzae [1] is reported as “A (100%)”; with Pyricularia oryzae [2], “A (From 80% to 100%)”; in the test on Pyricularia oryzae [3], “A (From 80% to 100%)”.
With `C=CCOC(=O)NC(CNC(=O)c1ccc(C)cc1)C(C)C` (stereo not drawn) [compound 742], the “Grade of Effect” value with Pyricularia oryzae [1] is recorded as “A (100%)”; in the test on Pyricularia oryzae [2] it was “A (From 80% to 100%)”; with Pyricularia oryzae [3], “A (From 80% to 100%)”.
For `C#CCOC(=O)NC(CNC(=O)c1ccc(C)cc1)C(C)C` (stereo not drawn) [compound 807], the “Grade of Effect” value is recorded as “A (100%)” with Pyricularia oryzae [1], “A (From 80% to 100%)” with Pyricularia oryzae [2] and “A (From 80% to 100%)” in the test with Pyricularia oryzae [3].
`Cc1ccc(C(=O)NCC(NC(=O)OCCS(C)(=O)=O)C(C)C)cc1` (stereo not drawn) [compound 1276]: the “Grade of Effect” value is “A (100%)” in the test with Pyricularia oryzae [1], “A (From 80% to 100%)” in the test with Pyricularia oryzae [2] and “A (From 80% to 100%)” with Pyricularia oryzae [3].
On to `C=C(C)COC(=O)NC(CNC(=O)c1ccc(C)cc1)C(C)C` (stereo not drawn) [compound 1216], for which the “Grade of Effect” value in the test on Pyricularia oryzae [1] is “A (100%)”; in the test with Pyricularia oryzae [2] it was “A (From 80% to 100%)”; with Pyricularia oryzae [3] it was “A (From 80% to 100%)”.
On to `CC(C)C(CNC(=O)c1ccc(Cl)cc1)NC(=O)OCc1cccs1` (stereo not drawn) [compound 1168], for which the “Grade of Effect” value in the test with Pyricularia oryzae [1] is on record as “A (100%)”; with Pyricularia oryzae [2], “A (From 80% to 100%)”; in the test on Pyricularia oryzae [3] it was “A (From 80% to 100%)”.
For the compound `COC(=O)NC(CNC(=O)c1ccccc1)C(C)C` (stereo not drawn) [compound 26], the results for the “Grade of Effect” value in the test on Pyricularia oryzae [1], in the test with Pyricularia oryzae [2] and with Pyricularia oryzae [3] were “A (100%)”, “A (From 80% to 100%)” and “A (From 80% to 100%)”, respectively.
For the compound `Cc1ccc(C(=O)NCC(NC(=O)OC(C)C)C(C)C)s1` (stereo not drawn) [compound 243], the “Grade of Effect” value in the test with Pyricularia oryzae [1] is on record as “A (100%)”; in the test with Pyricularia oryzae [2] it was “A (From 80% to 100%)”; in the test with Pyricularia oryzae [3], “A (From 80% to 100%)”.
For the compound `CC(CNC(=O)c1ccc(C(C)(C)C)cc1)NC(=O)OC(C)C` (stereo not drawn) [compound 216], the “Grade of Effect” value with Pyricularia oryzae [1] is “A (100%)”; in the test with Pyricularia oryzae [2], “A (From 80% to 100%)”; in the test on Pyricularia oryzae [3] it was “A (From 80% to 100%)”.
For `CC(C)C(CNC(=O)c1ccccc1)NC(=O)OCc1ccccc1` (stereo not drawn) [compound 596], the “Grade of Effect” value is given as “A (100%)” in the test with Pyricularia oryzae [1], “A (From 80% to 100%)” in the test with Pyricularia oryzae [2] and “A (From 80% to 100%)” in the test on Pyricularia oryzae [3].
Regarding `C=C(C)COC(=O)NC(CNC(=O)c1ccc(Cl)cc1)C(C)C` (stereo not drawn) [compound 1213], the results for the “Grade of Effect” value in the test with Pyricularia oryzae [1], with Pyricularia oryzae [2] and with Pyricularia oryzae [3] were “A (100%)”, “A (From 80% to 100%)” and “A (From 80% to 100%)”, respectively.
As for `Cc1ccc(C(=O)NCC(NC(=O)OCC2CCCO2)C(C)C)cc1` (stereo not drawn) [compound 1156], the “Grade of Effect” value was “A (100%)” in the test with Pyricularia oryzae [1], “A (From 80% to 100%)” in the test on Pyricularia oryzae [2] and “A (From 80% to 100%)” with Pyricularia oryzae [3].
For the compound `C=CCOC(=O)NC(CNC(=O)c1ccc(Cl)cc1)C(C)C` (stereo not drawn) [compound 739], the figures for the “Grade of Effect” value in the test with Pyricularia oryzae [1], with Pyricularia oryzae [2] and with Pyricularia oryzae [3] were “A (100%)”, “A (From 80% to 100%)” and “A (From 80% to 100%)”, respectively.
As for `CC(CNC(=O)c1ccccc1)NC(=O)c1ccccc1` (stereo not drawn) [Formula (7), reference compound], the “Grade of Effect” value in the test on Pyricularia oryzae [1] is “D (less than 50%)”; in the test on Pyricularia oryzae [2], “C (less than 50%)”; with Pyricularia oryzae [3], “C (less than 50%)”.
As for `CC(C)C(CNC(=O)c1ccc(Cl)cc1)NC(=O)OCC1CC1` (stereo not drawn) [compound 1183], the entries for the “Grade of Effect” value in the test with Pyricularia oryzae [1], in the test with Pyricularia oryzae [2] and in the test on Pyricularia oryzae [3] were “A (100%)”, “A (From 80% to 100%)” and “A (From 80% to 100%)”, respectively.
For the compound `Cc1ccc(C(=O)NCC(NC(=O)OCC(C)C)C(C)C)cc1` (stereo not drawn) [compound 387], the “Grade of Effect” value in the test with Pyricularia oryzae [1] is listed as “A (100%)”; with Pyricularia oryzae [2], “A (From 80% to 100%)”; in the test with Pyricularia oryzae [3], “A (From 80% to 100%)”.
Regarding `CC(C)OC(=O)NC(CNC(=O)c1ccc(Cl)cc1)C(C)C` (stereo not drawn) [compound 237], the figures for the “Grade of Effect” value in the test with Pyricularia oryzae [1], in the test on Pyricularia oryzae [2] and in the test on Pyricularia oryzae [3] were “A (100%)”, “A (From 80% to 100%)” and “A (From 80% to 100%)”, respectively.
`CC(C)C(CNC(=O)c1ccc(Cl)cc1)NC(=O)OCc1ccc(Cl)cc1` (stereo not drawn) [compound 1063]: the “Grade of Effect” value in the test with Pyricularia oryzae [1] was “A (100%)”; in the test with Pyricularia oryzae [2], “A (From 80% to 100%)”; with Pyricularia oryzae [3], “A (From 80% to 100%)”.
On to `CC(C)C(CNC(=O)c1ccc(Cl)cc1)NC(=O)OCc1ccoc1` (stereo not drawn) [compound 1138], for which the entries for the “Grade of Effect” value in the test with Pyricularia oryzae [1], in the test on Pyricularia oryzae [2] and in the test on Pyricularia oryzae [3] were “A (100%)”, “A (From 80% to 100%)” and “A (From 80% to 100%)”, respectively.
For `Cc1ccc(C(=O)NCC(NC(=O)OCc2ccoc2)C(C)C)cc1` (stereo not drawn) [compound 1141], the “Grade of Effect” value with Pyricularia oryzae [1] is reported as “A (100%)”; in the test with Pyricularia oryzae [2], “A (From 80% to 100%)”; in the test with Pyricularia oryzae [3], “A (From 80% to 100%)”.
`CC(C)OC(=O)NC(CNC(=O)c1ccc(Cl)c(Cl)c1)C(C)C` (stereo not drawn) [compound 238]: the “Grade of Effect” value in the test on Pyricularia oryzae [1] was “A (100%)”; in the test on Pyricularia oryzae [2], “A (From 80% to 100%)”; in the test on Pyricularia oryzae [3], “A (From 80% to 100%)”.
For `Cc1ccc(C(=O)NC(C)C(NC(=O)OC(C)(C)C)C(C)C)cc1` (stereo not drawn) [compound 470], the “Grade of Effect” value is given as “A (100%)” in the test with Pyricularia oryzae [1], “A (From 80% to 100%)” with Pyricularia oryzae [2] and “A (From 80% to 100%)” in the test on Pyricularia oryzae [3].
Take `Cc1ccc(COC(=O)NC(CNC(=O)c2ccc(C)cc2)C(C)C)cc1` (stereo not drawn) [compound 1050]: the “Grade of Effect” value is listed as “A (100%)” in the test on Pyricularia oryzae [1], “A (From 80% to 100%)” in the test on Pyricularia oryzae [2] and “A (From 80% to 100%)” in the test on Pyricularia oryzae [3].
Turning to `Cc1ccc(C(=O)NC(C)C(NC(=O)OC(C)C)C(C)C)cc1` (stereo not drawn) [compound 246], the “Grade of Effect” value is given as “A (100%)” in the test on Pyricularia oryzae [1], “A (From 80% to 100%)” with Pyricularia oryzae [2] and “A (From 80% to 100%)” in the test with Pyricularia oryzae [3].
Consider `Cc1ccc(C(=O)NCC(NC(=O)OC(C)C)c2ccccc2)cc1` (stereo not drawn) [compound 279], for which the “Grade of Effect” value with Pyricularia oryzae [1] was “A (100%)”; with Pyricularia oryzae [2], “A (From 80% to 100%)”; in the test on Pyricularia oryzae [3], “A (From 80% to 100%)”.
On to `CC(C)C(CNC(=O)c1ccccc1)NC(=O)Oc1ccccc1` (stereo not drawn) [compound 526], for which the results for the “Grade of Effect” value with Pyricularia oryzae [1], in the test with Pyricularia oryzae [2] and in the test on Pyricularia oryzae [3] were “A (100%)”, “A (From 80% to 100%)” and “A (From 80% to 100%)”, respectively.
Turning to `Cc1ccc(C(=O)NCC(NC(=O)OCc2cccs2)C(C)C)cc1` (stereo not drawn) [compound 1171], the “Grade of Effect” value is “A (100%)” with Pyricularia oryzae [1], “A (From 80% to 100%)” in the test with Pyricularia oryzae [2] and “A (From 80% to 100%)” in the test with Pyricularia oryzae [3].
On to `O=C(NC(CNC(=O)c1ccccc1)c1ccccc1)OCc1ccccc1` (stereo not drawn) [compound 636, N-(benzyloxycarbonyl)-N′-benzoyl-1-phenyl-1,2-ethylenediamine], for which the “Grade of Effect” value is given as “A (100%)” with Pyricularia oryzae [1], “A (From 80% to 100%)” with Pyricularia oryzae [2] and “A (From 80% to 100%)” with Pyricularia oryzae [3].
As for `Cc1ccc(C(=O)NCC(Cc2ccccc2)NC(=O)OC(C)C)cc1` (stereo not drawn) [compound 289], the “Grade of Effect” value in the test with Pyricularia oryzae [1] is “A (100%)”; with Pyricularia oryzae [2], “A (From 80% to 100%)”; with Pyricularia oryzae [3], “A (From 80% to 100%)”.
In the case of `CC(C)C(NC(=O)OC(C)(C)C)C(C)NC(=O)c1ccc(Cl)cc1` (stereo not drawn) [compound 471], the “Grade of Effect” value with Pyricularia oryzae [1] was “A (100%)”; in the test on Pyricularia oryzae [2], “A (From 80% to 100%)”; with Pyricularia oryzae [3], “A (From 80% to 100%)”.
Regarding `CC(C)OC(=O)NC(C(C)C)C(C)NC(=O)c1ccc(Cl)cc1` (stereo not drawn) [compound 247], the “Grade of Effect” value in the test on Pyricularia oryzae [1] is recorded as “A (100%)”; with Pyricularia oryzae [2], “A (From 80% to 100%)”; in the test on Pyricularia oryzae [3] it was “A (From 80% to 100%)”.
